Measured values from US20060264460A1 (Wyeth, priority 2005, published 2006).

Target: T1, human Cot/Tpl2 kinase (Homo sapiens, UniProt P41279)
T1 construct: human Cot/Tpl2 kinase construct encoding residues 30-398; 6His (N); made in house; host or cells: Sf9 insect cells, baculovirus system (BD Biosciences)
Assay: Tpl2/Cot kinase assay: GST-MEK1 phosphorylation detected by ELISA (DELFIA Eu)
Format: biochemical
Details: 0.4 nM Tpl2, 35 nM GST-MEK1, 50 uM ATP, 1 h at 30° C.
Procedure, shortened: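 His-tagged human Tpl2 from Sf9 cells, Ni-affinity and size-exclusion purified (monomer). 0.4 nM Tpl2 with 35 nM GST-MEK1, 50 uM ATP, MOPS pH 7.2, 1% DMSO, 1 h at 30° C; EDTA stop. MEK1 Ser217/221 phosphorylation detected by anti-phospho-MEK1 and Eu-labelled secondary ELISA; IC50 fitted.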

T1 sequence (P41279 30-398): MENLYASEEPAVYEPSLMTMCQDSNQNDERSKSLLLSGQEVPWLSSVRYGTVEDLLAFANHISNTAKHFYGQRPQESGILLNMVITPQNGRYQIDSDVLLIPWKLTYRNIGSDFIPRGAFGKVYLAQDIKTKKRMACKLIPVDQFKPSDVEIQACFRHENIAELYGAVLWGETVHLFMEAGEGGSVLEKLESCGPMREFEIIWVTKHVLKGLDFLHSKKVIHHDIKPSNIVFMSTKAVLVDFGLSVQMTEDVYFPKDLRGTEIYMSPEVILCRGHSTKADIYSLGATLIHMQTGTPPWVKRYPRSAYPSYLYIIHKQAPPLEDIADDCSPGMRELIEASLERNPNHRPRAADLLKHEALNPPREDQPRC

Compound | IC50 [nM]
N#Cc1cnc2c(Br)cc(NCc3cn(CCN4CCCC4)nn3)cc2c1Nc1ccc(F)c(Cl)c1 [Example 308, 8-Bromo-4-(3-chloro-4-fluoro-phenylamino)-6-{[1-(2-pyrrolidin-1-yl-ethyl)-1H-[1,2,3]triazol-4-ylmethyl]-amino}-quinoline-3-carbonitrile] | 28
N#Cc1cnc2c(Cl)cc(NCc3c(CCCO)ncn3COCc3ccccc3)cc2c1Nc1ccc(F)c(Cl)c1 [Example 198, 6-({[1-[(benzyloxy)methyl]-4-(3-hydroxypropyl)-1H-imidazol-5-yl]methyl}amino)-8-chloro-4-[(3-chloro-4-fluorophenyl)amino]quinoline-3-carbonitrile] | 870
N#Cc1cnc2c(Br)cc(NCc3cn(CCN)nn3)cc2c1Nc1ccc(F)c(Cl)c1 [Example 304, 6-{[1-(2-Amino-ethyl)-1H-[1,2,3]triazol-4-ylmethyl]-amino}-8-bromo-4-(3-chloro-4-fluoro-phenylamino)-quinoline-3-carbonitrile] | 17
N#Cc1cnc2c(Br)cc(NCc3ccoc3)cc2c1Nc1ccc(F)c(Cl)c1 [Example 299, 8-Bromo-4-(3-chloro-4-fluoro-phenylamino)-6-[(furan-3-ylmethyl)-amino]-quinoline-3-carbonitrile] | 480
CC(C)(C)OC(=O)COc1ccc(Br)cc1CNc1ccc2ncc(C#N)c(Nc3ccc(F)c(Cl)c3)c2c1 [Example 42] | 26800
N#Cc1cnc2c(C#N)cc(NCc3cccnc3)cc2c1Nc1cccc(Cl)c1 [Example 74, 4-(3-chlorophenylamino)-6-(pyridin-3-ylmethylamino)quinoline-3,8-dicarbonitrile] | 140
Cn1ccnc1CNc1ccc2ncc(C#N)c(Nc3ccc(F)c(Cl)c3)c2c1 [Example 171, 4-(3-chloro-4-fluorophenylamino)-6-((1-methyl-1H-imidazol-2-yl)methylamino)quinoline-3-carbonitrile] | 14
N#Cc1cnc2c(Br)cc(NCc3cn(CC(=O)N4CCOCC4)nn3)cc2c1Nc1ccc(F)c(Cl)c1 [Example 298, 8-Bromo-4-(3-chloro-4-fluoro-phenylamino)-6-{[1-(2-morpholin-4-yl-2-oxo-ethyl)-1H-[1,2,3]triazol-4-ylmethyl]-amino}-quinoline-3-carbonitrile] | 38
N#Cc1cnc2ccc(NCc3nccn3CC(=O)N3CCOCC3)cc2c1Nc1ccc(F)c(Cl)c1 [Example 138, 4-(3-chloro-4-fluorophenylamino)-6-((1-(2-morpholino-2-oxoethyl)-1H-imidazol-2-yl)methylamino)quinoline-3-carbonitrile] | 27
N#Cc1cnc2ccc(NCc3cccc(Br)c3)cc2c1Nc1ccc(F)c(Cl)c1 [Example 147, 6-(3-bromobenzylamino)-4-(3-chloro-4-fluorophenylamino)quinoline-3-carbonitrile] | 1600
CC(=O)Nc1ccc(CNc2ccc3ncc(C#N)c(Nc4ccc(F)c(Cl)c4)c3c2)cc1 [Example 16, N-(4-{[4-(3-Chloro-4-fluoro-phenylamino)-3-cyano-quinolin-6-ylamino]-methyl}-phenyl)-acetamide] | 227
N#Cc1cnc2ccc(NCc3ccc(S(N)(=O)=O)cc3)cc2c1Nc1ccc(F)c(Cl)c1 [Example 121, 4-((4-(3-chloro-4-fluorophenylamino)-3-cyanoquinolin-6-ylamino)methyl)benzenesulfonamide] | 114
CN1CCC(n2cc(CNc3cc(Br)c4ncc(C#N)c(Nc5ccc(F)c(Cl)c5)c4c3)nn2)CC1 [Example 317, 8-bromo-4-[(3-chloro-4-fluorophenyl)amino]-6-({[1-(1-methylpiperidin-4-yl)-1H-1,2,3-triazol-4-yl]methyl}amino)quinoline-3-carbonitrile] | 19
N#Cc1cnc2c(Br)cc(NCc3[nH]cnc3-c3ccccc3)cc2c1Nc1ccc(F)c(Cl)c1 [Example 111, 8-bromo-4-(3-chloro-4-fluorophenylamino)-6-((4-phenyl-1H-imidazol-5-yl)methylamino)quinoline-3-carbonitrile] | 33
N#Cc1cnc2c(CCC(=O)CO)cc(NCc3cnc[nH]3)cc2c1Nc1ccc(F)c(Cl)c1 [Example 310, 4-[(3-chloro-4-fluorophenyl)amino]-8-(4-hydroxy-3-oxybutyl)-6-[(1H-imidazol-5-ylmethyl)amino]quinoline-3-carbonitrile] | 150
N#Cc1cnc2c(C(F)(F)F)cc(NCc3ccccn3)cc2c1Nc1ccc(F)c(Cl)c1 [Example 231, 4-[(3-chloro-4-fluorophenyl)amino]-6-[(pyridin-2-ylmethyl)amino]-8-(trifluoromethyl)quinoline-3-carbonitrile] | 19700

Same assay, conditions: Table 2; Tpl2/Cot kinase, GST-MEK1 substrate, 50 uM ATP

Compound | IC50 [nM]
COc1cc(NCCN2CCOCC2)cc2c(Nc3ccc(F)c(Cl)c3)c(C#N)cnc12 [Example 383] | 5200
N#Cc1cnc2c(Cl)cc(NCc3cn(Cc4ccc(C(F)(F)F)cc4)nn3)cc2c1Nc1ccc(F)c(Cl)c1 [Example 583] | > 3000
N#Cc1cnc2c(Br)cc(NCc3cc(-c4ccncc4)[nH]n3)cc2c1Nc1ccc(F)c(Cl)c1 [Example 455] | 13500
CNCCn1cc(CNc2cc(Cl)c3ncc(C#N)c(Nc4ccc(F)c(Cl)c4)c3c2)nn1 [Example 513] | 29
CC(C)(C)OC(=O)N1CCC[C@H]1CNc1cc(Cl)c2ncc(C#N)c(Nc3ccc(F)c(Cl)c3)c2c1 [Example 618] | > 3000
Cn1cnc(CNc2cc(Br)c3ncc(C#N)c(Nc4ccc(F)c(Cl)c4)c3c2)n1 [Example 486] | 200
COc1ccc(CNc2ccc3ncc(C#N)c(Nc4ccc(F)c(F)c4)c3c2)cn1 [Example 340] | 440
Cc1ncn(C)c1CNc1ccc2ncc(C#N)c(Nc3ccc(F)c(Cl)c3)c2c1 [Example 388] | 200
N#Cc1cnc2c(Cl)cc(NCc3cn(Cc4ccccn4)cn3)cc2c1Nc1ccc(F)c(Cl)c1 [Example 621] | 41
Cc1nc(CNc2cc(Cl)c3ncc(C#N)c(Nc4ccc(F)c(Cl)c4)c3c2)c(C)[nH]1 [Example 431] | 220
N#Cc1cnc2ccc(NCc3ccc(=O)[nH]c3)cc2c1Nc1ccc(F)c(F)c1 [Example 341] | 400
N#Cc1cnc2ccc(NCc3cc[nH]n3)cc2c1Nc1ccc(F)c(Cl)c1 [Example 382] | 74
N#Cc1cnc2c(CCO)cc(NCc3cnc[nH]3)cc2c1Nc1ccc(F)c(Cl)c1 [Example 462] | 1200
CN(C)CC(c1ccccc1)n1cc(CNc2cc(Br)c3ncc(C#N)c(Nc4ccc(F)c(Cl)c4)c3c2)nn1 (stereo not shown) [Example 575] | 93
N#Cc1cnc2c(Br)cc(NCc3cn(-c4ccncc4)nn3)cc2c1Nc1ccc(F)c(Cl)c1 [Example 559] | 5.5
CN(CCCn1cc(CNc2cc(Cl)c3ncc(C#N)c(Nc4ccc(F)c(Cl)c4)c3c2)nn1)C1CCCCC1 [Example 609] | 1.8
CN(C)C(=O)c1cc(N)cc2c(Nc3ccc(F)c(Cl)c3)c(C#N)cnc12 [Example 396] | 6000
CN1CCCN(CCCn2cc(CNc3cc(Br)c4ncc(C#N)c(Nc5ccc(F)c(Cl)c5)c4c3)nn2)CC1 [Example 624] | 70
Cc1c(CNc2ccc3ncc(C#N)c(Nc4ccc(F)c(Cl)c4)c3c2)ncn1CCN1CCOCC1 [Example 373] | 14

Same assay, conditions: Tpl2/Cot kinase, GST-MEK1 substrate, 50 uM ATP

Compound | IC50 [nM]
CC(C)N1CCC(CCn2cc(CNc3cc(Br)c4ncc(C#N)c(Nc5ccc(F)c(Cl)c5)c4c3)nn2)CC1 [Example 738] | 57
N#Cc1cnc2c(Br)cc(NCc3cn(C4CN5CCC4CC5)nn3)cc2c1Nc1ccc(F)c(Cl)c1 (stereo not shown) [Example 838] | 10
CNCCn1cc(CNc2cc(Br)c3ncc(C#N)c(Nc4ccc(F)c(Cl)c4)c3c2)nn1 [Example 684] | 38
N#Cc1cnc2c(Cl)cc(NCc3cn(CCc4ccccn4)nn3)cc2c1Nc1ccc(F)c(Cl)c1 [Example 746] | 25
N#Cc1cnc2c(Br)cc(NCc3cn(CCS(=O)(=O)C4CCCC4)nn3)cc2c1Nc1ccc(F)c(Cl)c1 [Example 699] | 53
CN(CCCn1cc(CNc2cc(Cl)c3ncc(C#N)c(Nc4ccc(F)c(Cl)c4)c3c2)nn1)C1CCCCC1 [Example 801] | 1.8
CC(C)(C)OC(=O)N1CCN(CCCn2cc(CNc3cc(Br)c4ncc(C#N)c(Nc5ccc(F)c(Cl)c5)c4c3)nn2)CC1 [Example 764] | 1300
CCN(C[C@@H]1CCCN1C(C)=O)c1cc(Cl)c2ncc(C#N)c(Nc3ccc(F)c(Cl)c3)c2c1 [Example 644] | > 3000
CN(C)CCNCC(=O)N1CCCC(CNc2cc(Cl)c3ncc(C#N)c(Nc4ccc(F)c(Cl)c4)c3c2)C1 (stereo not shown) [Example 920] | 860
CC(=O)N1CCC(n2cc(CNc3cc(Br)c4ncc(C#N)c(Nc5ccc(F)c(Cl)c5)c4c3)nn2)CC1 [Example 720] | 6.1
CN1CC(CCn2cc(CNc3cc(Cl)c4ncc(C#N)c(Nc5ccc(F)c(Cl)c5)c4c3)nn2)N(C)C1=O (stereo not shown) [Example 790] | 6.1

Same assay, conditions: Tpl2/Cot kinase, GST-MEK1 substrate, 50 uM ATP, 1 h at 30° C.; Table 2

Compound | IC50 [nM]
CN(C)CCn1cc(CNc2cc(Cl)c3ncc(C#N)c(NCC(F)(F)F)c3c2)nn1 [Example 984] | 1090
N#Cc1cnc2c(Cl)cc(NCc3cc(Br)cs3)cc2c1Nc1ccc(F)c(Cl)c1 [Example 1004] | > 3000
N#Cc1cnc2c(Cl)cc(NCc3cn(CCC4CCN(CC5CC5)CC4)nn3)cc2c1Nc1ccc(F)c(Cl)c1 [Example 936] | 130
COC(=O)N1CCC(n2cc(CNc3cc(Cl)c4ncc(C#N)c(Nc5ccc(F)c(Cl)c5)c4c3)nn2)CC1 [Example 980] | 24
N#Cc1cnc2c(Cl)cc(OCc3cn(C4CCNCC4)nn3)cc2c1Nc1ccc(F)c(Cl)c1 [Example 940] | 150
CC(=O)N1CCN(CCn2cc(CNc3cc(Cl)c4ncc(C#N)c(Nc5ccc(F)c(Cl)c5)c4c3)nn2)CC1 [Example 959] | 92
